Data on one compound can be found in patent publication US20210015793A1, “COMPOUNDS FOR TREATING CNS- AND NEURODEGENERATIVE DISEASES” (ETH ZURICH, priority 2018, published 2021).

The nature of data set [1]: 28-day repeated oral dosing safety in German shepherd dogs. Format: in vivo, dog. Particulars: dogs. As to the method:
(§1) Dog serum concentrations of Compound-1, Compound-1F and Compound-4 were determined with serum isolated from the blood of German shepherd dogs (age: 8-9 months) taken at different time points (2 h, 4 h, 6 h, 8, 10 h, 24 h) after oral drug intake. The steady-state serum concentrations of Compound-1, Compound-1F and Compound-4 were determined in mice with blood isolated at the end of the study by cardiac puncture. Serum proteins were removed by acetonitrile precipitation, and compounds were extracted by chloroform before separation on an HPLC-C18 column (Poroshell 120 EC-C18, Agilent) with an HPLC system (Agilent 1100 Series) and detection at OD 280 nm, for Compound-1 and Compound-1F. Detection of Compound-4 was performed at OD 310 nm. The same extraction method was also used to determine Compound-1F in the serum of healthy human research participants. Dog hematology and biochemical parameters were determined by the Center of Applied Analytical and Veterinary Studies, Cairo, Egypt. ECG and blood pressure were measured by Dr. Mohamed Elsaed, Electrocardiography Unit, Faculty of Veterinary Medicine, Cairo University. The study was approved by the ethical committee of the Center of Applied and Veterinary Studies, Cairo, Egypt. Clinical laboratory parameters of human research participants were determined by the Rabaa El Adaweya Medical Central Hospital, Cairo, Egypt.

Data set [2] can be described thus: Serum concentration by HPLC in dogs after oral dosing. It is filed as in vivo, dog. Particulars: dogs. As to the method:
as §1

Setting [3] is: repeated oral dosing 28 days, 200 mg daily.

SMILES strings stand for the structures.

In the case of `c1cc(-c2ccc3c(c2)OCO3)ncn1` [Compound-4, 4-(1,3-benzodioxol-5-yl)pyrimidine], the “blood pressure and heart rate before vs after drug intake” value in data set [1] (28 days) was “not different”. Also, the clinical laboratory parameters entry in data set [1] (28 days at 120, 200 and 300 mg per day) was “within the normal range”. In data set [1] (therapeutic dose range), the tolerability result was “excellent tolerability”. For the same compound, in data set [2] (doses of 120 mg, 200 mg and 300 mg, 28 days), the “dose dependence of peak serum levels at 2 h after drug intake” value is on record as “dose-dependent increase”. Further, the oral bioavailability entry in data set [2] (oral treatment) is on record as “good oral bioavailability”. Further, in data set [2] (setting [3]), the “serum concentration at t=8 h after intake” value is “undetectable” and the “time to peak serum level after drug intake” value came out at 2 h. Also, in data set [2] (repeated oral dosing 28 days, daily dose of 200 mg), the peak serum concentration is 0.56 ± 0.10 µg/mL.
